Source: patent US10681909B2, “Herbicidal triazoles” (FMC Corporation, priority 2014, dated 2020)

Legend:
foxtail, giant [1] = experiment: Test A postemergence; assay type: in vivo, Setaria faberii; details: 0 to 100 scale (0 no effect, 100 complete control), approx. 10 d
How it was run: (§1)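 Test chemicals in a non-phytotoxic solvent with surfactant were applied as a directed soil spray preemergence to seeds sown in loam/sand. Postemergence sprays went to plants 2–10 cm tall at the one- to two-leaf stage. A dash means no result.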

rice = experiment: Test B flooded paddy test; assay type: in vivo, Oryza sativa; details: applied to paddy water at 2-leaf stage, visual rating after 13 to 15 d, scale 0 (no effect) to 100 (complete control)
Source text: (§2) At time of treatment, test pots were flooded to 3 cm above the soil surface, treated by application of test compounds directly to the paddy water, and then maintained at that water depth for the duration of the test. Treated plants and controls were maintained in a greenhouse for 13 to 15 d, after which time all species were compared to controls and visually evaluated. […] A dash (-) response means no test result.

corn [2] = experiment: Test A preemergence; assay type: in vivo, Zea mays; details: 0 to 100 scale (0 no effect, 100 complete control)
Source text: (§3) Seeds of plant species selected from barnyardgrass (Echinochloa crus-galli), crabgrass, large (large crabgrass, Digitaria sanguinalis), kochia (Kochia scoparia), ragweed (common ragweed, Ambrosia elatior), foxtail, giant (giant foxtail, Setaria faberii), morningglory (Ipomoea spp.), pigweed (Amaranthus retroflexus), velvetleaf (Abutilon theophrasti), ryegrass, Italian (Italian ryegrass, Lolium multiflorum), wheat (Triticum aestivum), and corn (Zea mays) were planted into a blend of loam soil and sand and treated preemergence with a directed soil spray using test chemicals formulated in a non-phytotoxic solvent mixture which included a surfactant. At the same time, plants selected from these crop and weed species and also blackgrass (Alopecurus myosuroides), and galium (catchweed bedstraw, Galium aparine), were planted in pots containing the same blend of loam soil and sand and treated with postemergence applications of test chemicals formulated in the same manner. Plants ranged in height from 2 to 10 cm and were in the one- to two-leaf stage for the postemergence treatment. […] A dash (-) response means no test result.

ducksalad = experiment: Test B flooded paddy test; assay type: in vivo, Heteranthera limosa; details: applied to paddy water at 2-leaf stage, visual rating after 13 to 15 d, scale 0 (no effect) to 100 (complete control)
Source text: as §2

barnyardgrass [3] = experiment: Test B flooded paddy test; assay type: in vivo, Echinochloa crus-galli; details: applied to paddy water at 2-leaf stage, visual rating after 13 to 15 d, scale 0 (no effect) to 100 (complete control)
Source text: as §2

morningglory [4] = experiment: Test A postemergence; assay type: in vivo, Ipomoea spp.; details: 0 to 100 scale (0 no effect, 100 complete control), approx. 10 d
Source text: as §3

crabgrass, large [5] = experiment: Test A postemergence; assay type: in vivo, Digitaria sanguinalis; details: 0 to 100 scale (0 no effect, 100 complete control), approx. 10 d
Source text: as §3

wheat [6] = experiment: Test A postemergence; assay type: in vivo, Triticum aestivum; details: 0 to 100 scale (0 no effect, 100 complete control), approx. 10 d
How it was run: as §1

barnyardgrass [7] = experiment: Test A postemergence; assay type: in vivo, Echinochloa crus-galli; details: 0 to 100 scale (0 no effect, 100 complete control), approx. 10 d
How it was run: as §1

pigweed [8] = experiment: Test A postemergence; assay type: in vivo, Amaranthus retroflexus; details: 0 to 100 scale (0 no effect, 100 complete control), approx. 10 d
How it was run: as §1

morningglory [9] = experiment: Test A preemergence; assay type: in vivo, Ipomoea spp.; details: 0 to 100 scale (0 no effect, 100 complete control)
Source text: as §3

crabgrass, large [10] = experiment: Test A preemergence; assay type: in vivo, Digitaria sanguinalis; details: 0 to 100 scale (0 no effect, 100 complete control)
Source text: as §3

barnyardgrass [11] = experiment: Test A preemergence; assay type: in vivo, Echinochloa crus-galli; details: 0 to 100 scale (0 no effect, 100 complete control)
How it was run: as §1

corn [12] = experiment: Test A postemergence; assay type: in vivo, Zea mays; details: 0 to 100 scale (0 no effect, 100 complete control), approx. 10 d
How it was run: as §1

velvetleaf [13] = experiment: Test A preemergence; assay type: in vivo, Abutilon theophrasti; details: 0 to 100 scale (0 no effect, 100 complete control)
Source text: as §3

pigweed [14] = experiment: Test A preemergence; assay type: in vivo, Amaranthus retroflexus; details: 0 to 100 scale (0 no effect, 100 complete control)
How it was run: as §1

sedge, umbrella = experiment: Test B flooded paddy test; assay type: in vivo, Cyperus difformis; details: applied to paddy water at 2-leaf stage, visual rating after 13 to 15 d, scale 0 (no effect) to 100 (complete control)
Source text: as §2

wheat [15] = experiment: Test A preemergence; assay type: in vivo, Triticum aestivum; details: 0 to 100 scale (0 no effect, 100 complete control)
Source text: as §3

velvetleaf [16] = experiment: Test A postemergence; assay type: in vivo, Abutilon theophrasti; details: 0 to 100 scale (0 no effect, 100 complete control), approx. 10 d
Source text: as §3

foxtail, giant [17] = experiment: Test A preemergence; assay type: in vivo, Setaria faberii; details: 0 to 100 scale (0 no effect, 100 complete control)
How it was run: as §1

SMILES | Plant response rating, Foxtail, Giant (foxtail, giant [1]; 125 g ai/ha) | Plant response rating, Foxtail, Giant (foxtail, giant [1]; 500 g ai/ha) | Plant response rating, Corn (corn [2]; 125 g ai/ha) | Plant response rating, Corn (corn [2]; 500 g ai/ha, approx. 10 d) | Plant response rating, Morningglory (morningglory [4]; 125 g ai/ha) | Plant response rating, Morningglory (morningglory [4]; 500 g ai/ha) | Plant response rating, Crabgrass, Large (crabgrass, large [5]; 125 g ai/ha) | Plant response rating, Crabgrass, Large (crabgrass, large [5]; 500 g ai/ha) | Plant response rating, Wheat (wheat [6]; 125 g ai/ha) | Plant response rating, Wheat (wheat [6]; 500 g ai/ha) | Plant response rating, Barnyardgrass (barnyardgrass [7]; 125 g ai/ha) | Plant response rating, Barnyardgrass (barnyardgrass [7]; 500 g ai/ha) | Plant response rating, Pigweed (pigweed [8]; 125 g ai/ha) | Plant response rating, Pigweed (pigweed [8]; 500 g ai/ha) | Plant response rating, Morningglory (morningglory [9]; 125 g ai/ha) | Plant response rating, Morningglory (morningglory [9]; 500 g ai/ha, approx. 10 d) | Plant response rating, Crabgrass, Large (crabgrass, large [10]; 125 g ai/ha) | Plant response rating, Crabgrass, Large (crabgrass, large [10]; 500 g ai/ha, approx. 10 d) | Plant response rating, Barnyardgrass (barnyardgrass [11]; 125 g ai/ha) | Plant response rating, Barnyardgrass (barnyardgrass [11]; 500 g ai/ha, approx. 10 d) | other results
CCn1nc(-c2ccc(F)cc2)nc1Cc1ccnc(C(F)(F)F)c1 [Compound 18] | 50 | 90 | 0 | 0 | 50 | 100 | 60 | 90 | 20 | 30 | 30 | 60 | 100 | 100 | 10 | 40 | 90 | 100 | 10 | 60 | Plant response rating, Rice, Flood (rice; 125 g ai/ha): 0; Plant response rating, Ducksalad, Flood (ducksalad; 125 g ai/ha): 70; Plant response rating, Barnyardgrass, Flood (barnyardgrass [3]; 125 g ai/ha): 0; Plant response rating, Corn (corn [12]; 125 g ai/ha): 30; Plant response rating, Corn (corn [12]; 500 g ai/ha): 40; Plant response rating, Velvetleaf (velvetleaf [13]; 125 g ai/ha): 10; Plant response rating, Velvetleaf (velvetleaf [13]; 500 g ai/ha, approx. 10 d): 70; Plant response rating, Pigweed (pigweed [14]; 125 g ai/ha): 100; Plant response rating, Pigweed (pigweed [14]; 500 g ai/ha, approx. 10 d): 100; Plant response rating, Sedge, Umbrella, Flood (sedge, umbrella; 125 g ai/ha): 70; Plant response rating, Wheat (wheat [15]; 125 g ai/ha): 0; Plant response rating, Wheat (wheat [15]; 500 g ai/ha, approx. 10 d): 0; Plant response rating, Velvetleaf (velvetleaf [16]; 125 g ai/ha): 30; Plant response rating, Velvetleaf (velvetleaf [16]; 500 g ai/ha): 80; Plant response rating, Foxtail, Giant (foxtail, giant [17]; 125 g ai/ha): 90; Plant response rating, Foxtail, Giant (foxtail, giant [17]; 500 g ai/ha, approx. 10 d): 100
CCCn1nc(-c2ccc(F)cc2)nc1C(=O)c1ccnc(C(F)(F)F)c1 [Compound 20] | 10 | 10 | 0 | 0 | 10 | 10 | 20 | 10 | 20 | 30 | 0 | 20 | 40 | 90 | 0 | 20 | 20 | 100 | 0 | 80 | Plant response rating, Rice, Flood (rice; 125 g ai/ha): 0; Plant response rating, Ducksalad, Flood (ducksalad; 125 g ai/ha): 0; Plant response rating, Barnyardgrass, Flood (barnyardgrass [3]; 125 g ai/ha): 0; Plant response rating, Corn (corn [12]; 125 g ai/ha): 20; Plant response rating, Corn (corn [12]; 500 g ai/ha): 20; Plant response rating, Velvetleaf (velvetleaf [13]; 125 g ai/ha): 0; Plant response rating, Velvetleaf (velvetleaf [13]; 500 g ai/ha, approx. 10 d): 0; Plant response rating, Pigweed (pigweed [14]; 125 g ai/ha): 20; Plant response rating, Pigweed (pigweed [14]; 500 g ai/ha, approx. 10 d): 90; Plant response rating, Sedge, Umbrella, Flood (sedge, umbrella; 125 g ai/ha): 0; Plant response rating, Wheat (wheat [15]; 125 g ai/ha): 0; Plant response rating, Wheat (wheat [15]; 500 g ai/ha, approx. 10 d): 20; Plant response rating, Velvetleaf (velvetleaf [16]; 125 g ai/ha): 0; Plant response rating, Velvetleaf (velvetleaf [16]; 500 g ai/ha): 40; Plant response rating, Foxtail, Giant (foxtail, giant [17]; 125 g ai/ha): 80; Plant response rating, Foxtail, Giant (foxtail, giant [17]; 500 g ai/ha, approx. 10 d): 90
CSc1nc(-c2ccc(F)cc2)nn1Cc1ccnc(C(F)(F)F)c1 [Compound 21] | 10 | 20 | 0 | 0 | 20 | 30 | 20 | 20 | 0 | 10 | 0 | 10 | 30 | 80 | 0 | 0 | 10 | 80 | 0 | 0 | Plant response rating, Rice, Flood (rice; 250 g ai/ha): 25; Plant response rating, Ducksalad, Flood (ducksalad; 250 g ai/ha): 95; Plant response rating, Barnyardgrass, Flood (barnyardgrass [3]; 250 g ai/ha): 80; Plant response rating, Corn (corn [12]; 125 g ai/ha): 10; Plant response rating, Corn (corn [12]; 500 g ai/ha): 20; Plant response rating, Velvetleaf (velvetleaf [13]; 125 g ai/ha): 0; Plant response rating, Velvetleaf (velvetleaf [13]; 500 g ai/ha, approx. 10 d): 0; Plant response rating, Pigweed (pigweed [14]; 125 g ai/ha): 10; Plant response rating, Pigweed (pigweed [14]; 500 g ai/ha, approx. 10 d): 90; Plant response rating, Sedge, Umbrella, Flood (sedge, umbrella; 250 g ai/ha): 90; Plant response rating, Wheat (wheat [15]; 125 g ai/ha): 0; Plant response rating, Wheat (wheat [15]; 500 g ai/ha, approx. 10 d): 0; Plant response rating, Velvetleaf (velvetleaf [16]; 125 g ai/ha): 10; Plant response rating, Velvetleaf (velvetleaf [16]; 500 g ai/ha): 20; Plant response rating, Foxtail, Giant (foxtail, giant [17]; 125 g ai/ha): 0; Plant response rating, Foxtail, Giant (foxtail, giant [17]; 500 g ai/ha, approx. 10 d): 60
CCCc1nc(-c2ccc(Cl)cc2)nn1Cc1ccnc(C(F)(F)F)c1 [Compound 22] | 70 | 80 | 10 | 20 | 50 | 80 | 100 | 100 | 30 | 40 | 40 | 60 | 100 | 100 | 10 | 70 | 100 | 100 | 40 | 70 | Plant response rating, Rice, Flood (rice; 250 g ai/ha): 0; Plant response rating, Ducksalad, Flood (ducksalad; 250 g ai/ha): 0; Plant response rating, Barnyardgrass, Flood (barnyardgrass [3]; 250 g ai/ha): 0; Plant response rating, Corn (corn [12]; 125 g ai/ha): 20; Plant response rating, Corn (corn [12]; 500 g ai/ha): 50; Plant response rating, Velvetleaf (velvetleaf [13]; 125 g ai/ha): 20; Plant response rating, Velvetleaf (velvetleaf [13]; 500 g ai/ha, approx. 10 d): 40; Plant response rating, Pigweed (pigweed [14]; 125 g ai/ha): 100; Plant response rating, Pigweed (pigweed [14]; 500 g ai/ha, approx. 10 d): 100; Plant response rating, Sedge, Umbrella, Flood (sedge, umbrella; 250 g ai/ha): 0; Plant response rating, Wheat (wheat [15]; 125 g ai/ha): 10; Plant response rating, Wheat (wheat [15]; 500 g ai/ha, approx. 10 d): 20; Plant response rating, Velvetleaf (velvetleaf [16]; 125 g ai/ha): 60; Plant response rating, Velvetleaf (velvetleaf [16]; 500 g ai/ha): 100; Plant response rating, Foxtail, Giant (foxtail, giant [17]; 125 g ai/ha): 100; Plant response rating, Foxtail, Giant (foxtail, giant [17]; 500 g ai/ha, approx. 10 d): 100
